Test results: publication PMC2846469, “Pharmacokinetic Study of a Novel Antihyperlipidemic Agent LM-13765- A Prodrug” (Indian Journal of Pharmaceutical Sciences, 2009)
Entries after “also recorded” stand apart in the source; their conditions may differ.

Columns and labels:
[1] = Preliminary in vivo study: serum LM 13765 by HPTLC after oral LM 13765; parameters: species or system rabbits (New Zealander strain); details: rabbits, oral 100 mg/kg, samples 0.5-12 h
Protocol: Drug/metabolite-free plasma or plasma spiked with fixed aliquots of LM 13765 or rabbit serum sample (0.2 ml) was taken in a glass centrifuge tube (15 ml capacity). Sufficient amount of acetonitrile was added to make the volume to 1.6 ml and vortexed at high speed for 1 min. The mixture was centrifuged (2500 rpm, 15 min) and the clear supernatant layer was transferred to another tube and dried over anhydrous sodium sulphate (0.25 g). Adequate volumes of the dried acetonitrile layer were spotted onto the TLC plate. Chromatographic estimations were performed using precoated silica gel 60 F254 TLC plates (prewashed with methanol and dried in air) under following conditions; A mobile phase, benzene:methanol (8:2 v/v); chamber saturation time, 60 min; temperature, 25±2°; development of plates, ascending mode; migration distance, 50 mm; slit dimension, 3×0.3 mm; wavelength of detection, 314 nm; band width, 4 mm; space between two bands, 4 mm; spraying rate, 10 μl/s.
Suitable volumes of standard solution of LM 13765 in acetonitrile or extracts of drug/metabolite-free plasma or rabbit serum samples, were applied on TLC plate under nitrogen stream using semiautomatic spotter. The plate was dried in air and developed at constant temperature (25±2°) using a mixture of benzene:methanol (8:2 v/v) as the mobile phase. […] Peak area values were used for quantitative determination. […]

[2] = system: serum cholesterol, triglycerides and HDL levels; parameters: method as in PMID 9037441; details: cited from earlier work
mice = details: up to the dose of 4.5 g/kg, earlier study reported in the introduction; cited from earlier work
[3] = Stability in plasma under storage conditions; type: in vitro ADME, rabbit; details: -20°, one day (24 h)
Protocol: The method was validated in terms of linearity, limit of quantitation, limit of detection, precision, accuracy and specificity. The linear response for LM 13765 spiked in plasma, was determined by analyzing corresponding samples five times for each concentration in the range of 12.5 to 100 ng/spot. The lowest concentration of the calibration range is taken as the limit of quantitation for LM 13765 while the limit of detection was determined by spotting concentrations of LM 13765 lower than the limit of quantitation. […] The recovery of LM 13765 from plasma (extraction efficiency) was determined by comparing peak areas obtained from plasma spiked with LM 13765 at concentration levels of 12.5, 25, 50, 75 and 100 ng/spot with the corresponding standards of LM 13765. Accuracy of the proposed method was determined by standard addition method at three different concentrations of LM 13765 in the range of 12.5 to 100 ng/spot. Specificity of the proposed method was assessed in terms of purity of chromatographic peak corresponding to LM 13765 by correlating the spectra scanned at peak start, peak apex and peak end positions of the spot corresponding to LM 13765. […] The sample was analyzed, on the same day as well as after 24 h storage, for the amounts of LM 13765. […]

hyperlipidemic rats = experiment: Biological screening for antihyperlipidemic activity on hyperlipidemic rats; type: in vivo

Row | Structure (SMILES) | Parent LM 13765 in serum after oral administration (HPTLC spot Rf 0.21) [1] | potency versus standard drug gemfibrozil in lowering serum cholesterol and triglycerides and elevating serum HDL [2] | mortality or behavioral changes after oral administration (mice) | Stability in plasma under storage conditions [3] | antihyperlipidemic activity relative to parent compound LM 13765 (hyperlipidemic rats)
1 | CCOC(=O)C(C#N)=C(NC=N)Nc1ccc(Cl)cc1 [LM 13765, N-[2-carbethoxy-2-cyano-1-(p-chloroanilino)vinyl]formamidine] | no spot corresponding to LM 13765 | more potent than the standard drug gemfibrozil | no mortality or behavioral changes | undergoes significant degradation in one day | 
2 | CCOC(=O)C(C#N)=C(N)Nc1ccc(Cl)cc1 [LM 13765-C, ethyl 3-amino-2-cyano-3-(p-chloroanilino)acrylate] |  |  |  | stable | less potent than the parent compound; also recorded: very good antihyperlipidemic activity but is less potent than the parent compound
